Assays:
[1] = molecular target: Serine/threonine-protein kinase Sgk3 (Homo sapiens) (UniProt Q96BR1); details: Compound concentration 1000.0 nM
[2] = tested on: Mast/stem cell growth factor receptor Kit (Homo sapiens), P10721 [L576P]; details: Compound concentration 1000.0 nM
[3] = molecular target: Serine/threonine-protein kinase D3 (Homo sapiens) (UniProt O94806); details: Compound concentration 1000.0 nM
[4] = molecular target: Serine/threonine-protein kinase 3 (Homo sapiens) (UniProt Q13188); details: Compound concentration 1000.0 nM
[5] = molecular target: Histamine H3 receptor (Homo sapiens) (UniProt Q9Y5N1); details: Compound concentration 10.0 uM
[6] = molecular target: Receptor tyrosine-protein kinase erbB-3 (Homo sapiens) (UniProt P21860); details: Compound concentration 1000.0 nM
[7] = tested on: Proto-oncogene tyrosine-protein kinase receptor Ret (Homo sapiens), P07949 [M918T]; details: Compound concentration 1000.0 nM
[8] = molecular target: Ribosomal protein S6 kinase alpha-2 (Homo sapiens) (UniProt Q15349); details: Compound concentration 1000.0 nM
[9] = molecular target: Cyclin-dependent kinase 17 (Homo sapiens) (UniProt Q00537); details: Compound concentration 1000.0 nM
[10] = molecular target: Serine/threonine-protein kinase D1 (Homo sapiens) (UniProt Q15139); details: Compound concentration 1000.0 nM
[11] = molecular target: High affinity nerve growth factor receptor (Homo sapiens) (UniProt P04629); details: Compound concentration 1000.0 nM
[12] = molecular target: Cyclin-dependent kinase 4 (Homo sapiens) (UniProt P11802); details: Compound concentration 1000.0 nM
[13] = molecular target: Tyrosine-protein kinase Blk (Homo sapiens) (UniProt P51451); details: Compound concentration 1000.0 nM
[14] = molecular target: Tyrosine-protein kinase Lyn (Homo sapiens) (UniProt P07948); details: Compound concentration 1000.0 nM
[15] = molecular target: Proto-oncogene tyrosine-protein kinase receptor Ret (Homo sapiens) (UniProt P07949); details: Compound concentration 1000.0 nM
[16] = molecular target: Activin receptor type-2A (Homo sapiens) (UniProt P27037); details: Compound concentration 1000.0 nM
[17] = molecular target: Tyrosine-protein kinase TXK (Homo sapiens) (UniProt P42681); details: Compound concentration 1000.0 nM
[18] = molecular target: Ribosomal protein S6 kinase alpha-3 (Homo sapiens) (UniProt P51812); details: Compound concentration 1000.0 nM
[19] = molecular target: Phosphatidylinositol 4,5-bisphosphate 3-kinase catalytic subunit beta isoform (Homo sapiens) (UniProt P42338); details: Compound concentration 1000.0 nM
[20] = molecular target: Serine/threonine-protein kinase 33 (Homo sapiens) (UniProt Q9BYT3); details: Compound concentration 1000.0 nM
[21] = molecular target: Serine/threonine-protein kinase PLK1 (Homo sapiens) (UniProt P53350); details: Compound concentration 1000.0 nM
[22] = molecular target: Ribosomal protein S6 kinase alpha-4 (Homo sapiens) (UniProt O75676); details: Compound concentration 1000.0 nM
[23] = molecular target: Serine/threonine-protein kinase Nek6 (Homo sapiens) (UniProt Q9HC98); details: Compound concentration 1000.0 nM
[24] = tested on: Mast/stem cell growth factor receptor Kit (Homo sapiens), P10721 [D816H]; details: Compound concentration 1000.0 nM
[25] = molecular target: Serine/threonine-protein kinase PknB (Mycobacterium tuberculosis) (UniProt P9WI81); details: Compound concentration 1000.0 nM
[26] = molecular target: Tyrosine-protein kinase JAK1 (Homo sapiens) (UniProt P23458); details: Compound concentration 1000.0 nM
[27] = molecular target: Cyclin-dependent kinase 11A (Homo sapiens) (UniProt Q9UQ88); details: Compound concentration 1000.0 nM
[28] = molecular target: Tyrosine-protein kinase Tec (Homo sapiens) (UniProt P42680); details: Compound concentration 1000.0 nM
[29] = molecular target: 1-phosphatidylinositol 3-phosphate 5-kinase (Homo sapiens) (UniProt Q9Y2I7); details: Compound concentration 1000.0 nM
Histamine H4 receptor = Histamine H4 receptor (Homo sapiens, UniProt Q9H3N8); details: Compound concentration 10.0 uM
[30] = molecular target: Death-associated protein kinase 3 (Homo sapiens) (UniProt O43293); details: Compound concentration 1000.0 nM
[31] = molecular target: Cyclin-dependent kinase 3 (Homo sapiens) (UniProt Q00526); details: Compound concentration 1000.0 nM
[32] = molecular target: Mitogen-activated protein kinase 13 (Homo sapiens) (UniProt O15264); details: Compound concentration 1000.0 nM
[33] = tested on: Receptor-type tyrosine-protein kinase FLT3 (Homo sapiens), P36888 [K663Q]; details: Compound concentration 1000.0 nM
[34] = molecular target: Serine/threonine-protein kinase VRK2 (Homo sapiens) (UniProt Q86Y07); details: Compound concentration 1000.0 nM
[35] = molecular target: Non-receptor tyrosine-protein kinase TYK2 (Homo sapiens) (UniProt P29597); details: Compound concentration 1000.0 nM
[36] = molecular target: Calcium/calmodulin-dependent protein kinase type IV (Homo sapiens) (UniProt Q16566); details: Compound concentration 1000.0 nM
[37] = molecular target: Muscarinic acetylcholine receptor M4 (Homo sapiens) (UniProt P08173); details: Compound concentration 10.0 uM
[38] = molecular target: MAP kinase-interacting serine/threonine-protein kinase 1 (Homo sapiens) (UniProt Q9BUB5); details: Compound concentration 1000.0 nM
[39] = tested on: ALK tyrosine kinase receptor (Homo sapiens), Q9UM73 [C1156Y]; details: Compound concentration 1000.0 nM
[40] = molecular target: Membrane-associated tyrosine- and threonine-specific cdc2-inhibitory kinase (Homo sapiens) (UniProt Q99640); details: Compound concentration 1000.0 nM
[41] = molecular target: Cyclin-G-associated kinase (Homo sapiens) (UniProt O14976); details: Compound concentration 1000.0 nM
[42] = molecular target: Serine/threonine-protein kinase Nek9 (Homo sapiens) (UniProt Q8TD19); details: Compound concentration 1000.0 nM
[43] = molecular target: Serine/threonine-protein kinase 26 (Homo sapiens) (UniProt Q9P289); details: Compound concentration 1000.0 nM
[44] = molecular target: Cyclin-dependent kinase 2 (Homo sapiens) (UniProt P24941); details: Compound concentration 1000.0 nM

Tyrosine-protein kinase TXK (Homo sapiens), sequence (P42681 whole entry): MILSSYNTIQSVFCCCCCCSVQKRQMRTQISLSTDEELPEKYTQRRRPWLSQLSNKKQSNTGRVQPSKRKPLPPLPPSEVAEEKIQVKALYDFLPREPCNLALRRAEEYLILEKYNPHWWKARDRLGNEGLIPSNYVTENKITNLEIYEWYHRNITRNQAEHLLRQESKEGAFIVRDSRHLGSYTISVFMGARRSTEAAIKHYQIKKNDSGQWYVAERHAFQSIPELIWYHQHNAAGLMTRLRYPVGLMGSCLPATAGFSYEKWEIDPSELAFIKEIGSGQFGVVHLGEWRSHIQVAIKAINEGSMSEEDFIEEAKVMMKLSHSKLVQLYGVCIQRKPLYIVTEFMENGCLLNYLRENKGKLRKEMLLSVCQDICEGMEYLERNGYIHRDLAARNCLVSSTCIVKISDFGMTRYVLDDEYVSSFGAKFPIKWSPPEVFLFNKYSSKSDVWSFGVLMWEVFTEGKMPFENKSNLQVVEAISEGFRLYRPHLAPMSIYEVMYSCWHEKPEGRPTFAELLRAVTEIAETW
Histamine H3 receptor (Homo sapiens), sequence (Q9Y5N1 whole entry): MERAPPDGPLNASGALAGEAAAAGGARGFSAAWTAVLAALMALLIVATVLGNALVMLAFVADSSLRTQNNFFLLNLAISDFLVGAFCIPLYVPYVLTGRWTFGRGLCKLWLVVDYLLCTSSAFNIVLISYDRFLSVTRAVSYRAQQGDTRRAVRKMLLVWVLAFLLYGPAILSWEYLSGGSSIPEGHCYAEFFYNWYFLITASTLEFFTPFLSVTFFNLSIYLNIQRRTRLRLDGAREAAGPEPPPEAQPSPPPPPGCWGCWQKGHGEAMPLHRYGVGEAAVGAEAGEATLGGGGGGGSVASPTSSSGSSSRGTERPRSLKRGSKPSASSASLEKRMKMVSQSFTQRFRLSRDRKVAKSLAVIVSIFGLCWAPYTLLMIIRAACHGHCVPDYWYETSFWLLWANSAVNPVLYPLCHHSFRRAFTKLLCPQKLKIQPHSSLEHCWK
Membrane-associated tyrosine- and threonine-specific cdc2-inhibitory kinase (Homo sapiens), sequence (Q99640 whole entry): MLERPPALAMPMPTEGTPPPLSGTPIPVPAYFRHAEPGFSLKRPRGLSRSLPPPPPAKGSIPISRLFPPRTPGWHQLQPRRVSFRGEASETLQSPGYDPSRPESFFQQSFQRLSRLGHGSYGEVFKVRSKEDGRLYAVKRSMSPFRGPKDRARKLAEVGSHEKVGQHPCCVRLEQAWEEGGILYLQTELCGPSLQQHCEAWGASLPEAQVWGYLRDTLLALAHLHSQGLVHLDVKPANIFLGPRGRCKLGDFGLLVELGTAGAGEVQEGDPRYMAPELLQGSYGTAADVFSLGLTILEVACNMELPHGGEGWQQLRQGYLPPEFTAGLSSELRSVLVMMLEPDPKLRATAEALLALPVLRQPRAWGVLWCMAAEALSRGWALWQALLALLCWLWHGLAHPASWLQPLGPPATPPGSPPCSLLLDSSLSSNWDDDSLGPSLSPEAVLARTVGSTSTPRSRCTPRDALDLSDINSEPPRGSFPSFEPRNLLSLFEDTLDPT
Proto-oncogene tyrosine-protein kinase receptor Ret (Homo sapiens), P07949 [M918T], sequence (P07949 whole entry M918T): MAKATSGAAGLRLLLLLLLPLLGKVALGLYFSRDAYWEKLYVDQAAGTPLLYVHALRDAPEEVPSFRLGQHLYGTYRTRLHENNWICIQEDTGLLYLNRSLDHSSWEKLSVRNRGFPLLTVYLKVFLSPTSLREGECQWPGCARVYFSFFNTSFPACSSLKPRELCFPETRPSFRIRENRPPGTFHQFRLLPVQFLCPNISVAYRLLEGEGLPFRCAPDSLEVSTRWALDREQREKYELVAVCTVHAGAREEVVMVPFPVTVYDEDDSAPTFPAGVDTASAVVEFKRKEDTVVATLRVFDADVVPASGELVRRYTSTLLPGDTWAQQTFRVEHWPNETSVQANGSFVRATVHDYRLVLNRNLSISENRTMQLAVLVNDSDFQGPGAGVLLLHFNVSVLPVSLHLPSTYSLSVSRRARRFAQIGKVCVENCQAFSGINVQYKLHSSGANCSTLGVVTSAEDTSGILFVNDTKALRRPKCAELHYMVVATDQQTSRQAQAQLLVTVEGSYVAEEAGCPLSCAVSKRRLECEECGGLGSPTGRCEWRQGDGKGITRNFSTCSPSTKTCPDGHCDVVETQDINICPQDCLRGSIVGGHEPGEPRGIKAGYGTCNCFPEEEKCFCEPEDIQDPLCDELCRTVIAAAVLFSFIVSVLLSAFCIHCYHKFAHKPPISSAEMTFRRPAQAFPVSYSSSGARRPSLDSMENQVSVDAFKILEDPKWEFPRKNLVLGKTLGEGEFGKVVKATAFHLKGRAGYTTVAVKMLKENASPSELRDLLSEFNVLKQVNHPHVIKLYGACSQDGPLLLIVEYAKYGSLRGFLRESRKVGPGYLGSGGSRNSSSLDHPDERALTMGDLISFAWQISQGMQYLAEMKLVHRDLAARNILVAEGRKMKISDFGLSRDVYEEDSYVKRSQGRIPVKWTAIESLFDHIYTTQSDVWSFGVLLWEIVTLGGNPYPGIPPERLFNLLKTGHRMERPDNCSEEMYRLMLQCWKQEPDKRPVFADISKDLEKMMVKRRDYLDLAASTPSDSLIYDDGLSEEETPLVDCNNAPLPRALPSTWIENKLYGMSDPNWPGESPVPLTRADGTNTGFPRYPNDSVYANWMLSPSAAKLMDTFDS
Serine/threonine-protein kinase 26 (Homo sapiens), sequence (Q9P289 2-416 limits assumed): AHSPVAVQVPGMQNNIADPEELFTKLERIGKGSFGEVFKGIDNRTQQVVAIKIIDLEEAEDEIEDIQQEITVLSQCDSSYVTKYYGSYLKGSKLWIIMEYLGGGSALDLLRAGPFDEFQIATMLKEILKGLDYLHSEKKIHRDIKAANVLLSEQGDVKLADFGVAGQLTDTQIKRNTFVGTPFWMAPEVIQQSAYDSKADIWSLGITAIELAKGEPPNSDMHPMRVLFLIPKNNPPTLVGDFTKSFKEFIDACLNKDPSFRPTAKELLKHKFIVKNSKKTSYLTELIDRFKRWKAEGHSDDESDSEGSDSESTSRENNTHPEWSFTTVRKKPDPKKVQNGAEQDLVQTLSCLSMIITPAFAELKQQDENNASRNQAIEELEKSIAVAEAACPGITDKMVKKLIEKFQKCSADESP
Serine/threonine-protein kinase 33 (Homo sapiens), sequence (Q9BYT3 whole entry, looked up): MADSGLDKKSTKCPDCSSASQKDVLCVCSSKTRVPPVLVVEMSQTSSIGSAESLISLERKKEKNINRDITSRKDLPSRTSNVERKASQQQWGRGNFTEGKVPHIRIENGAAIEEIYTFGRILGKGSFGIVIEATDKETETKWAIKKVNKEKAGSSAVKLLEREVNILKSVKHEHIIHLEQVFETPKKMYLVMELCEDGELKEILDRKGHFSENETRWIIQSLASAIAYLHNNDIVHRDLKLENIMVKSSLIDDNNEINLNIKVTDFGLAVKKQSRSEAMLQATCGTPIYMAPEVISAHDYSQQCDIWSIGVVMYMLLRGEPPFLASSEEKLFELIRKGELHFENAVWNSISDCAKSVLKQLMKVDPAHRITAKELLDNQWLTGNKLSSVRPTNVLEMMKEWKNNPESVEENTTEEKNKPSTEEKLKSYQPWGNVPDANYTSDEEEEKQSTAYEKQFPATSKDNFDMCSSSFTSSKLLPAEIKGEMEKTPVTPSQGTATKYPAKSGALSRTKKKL
Mitogen-activated protein kinase 13 (Homo sapiens), sequence (O15264 whole entry): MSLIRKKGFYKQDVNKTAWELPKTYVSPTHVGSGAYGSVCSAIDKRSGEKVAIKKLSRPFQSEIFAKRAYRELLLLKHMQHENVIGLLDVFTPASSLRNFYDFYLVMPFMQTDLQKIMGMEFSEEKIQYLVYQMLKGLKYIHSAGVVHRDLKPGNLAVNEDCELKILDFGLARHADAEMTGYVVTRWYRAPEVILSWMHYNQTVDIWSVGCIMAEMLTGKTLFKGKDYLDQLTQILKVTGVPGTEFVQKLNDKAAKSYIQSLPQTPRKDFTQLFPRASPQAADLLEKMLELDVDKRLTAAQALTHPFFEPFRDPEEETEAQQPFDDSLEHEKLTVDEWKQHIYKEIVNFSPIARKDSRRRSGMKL
MAP kinase-interacting serine/threonine-protein kinase 1 (Homo sapiens), sequence (Q9BUB5 whole entry, looked up): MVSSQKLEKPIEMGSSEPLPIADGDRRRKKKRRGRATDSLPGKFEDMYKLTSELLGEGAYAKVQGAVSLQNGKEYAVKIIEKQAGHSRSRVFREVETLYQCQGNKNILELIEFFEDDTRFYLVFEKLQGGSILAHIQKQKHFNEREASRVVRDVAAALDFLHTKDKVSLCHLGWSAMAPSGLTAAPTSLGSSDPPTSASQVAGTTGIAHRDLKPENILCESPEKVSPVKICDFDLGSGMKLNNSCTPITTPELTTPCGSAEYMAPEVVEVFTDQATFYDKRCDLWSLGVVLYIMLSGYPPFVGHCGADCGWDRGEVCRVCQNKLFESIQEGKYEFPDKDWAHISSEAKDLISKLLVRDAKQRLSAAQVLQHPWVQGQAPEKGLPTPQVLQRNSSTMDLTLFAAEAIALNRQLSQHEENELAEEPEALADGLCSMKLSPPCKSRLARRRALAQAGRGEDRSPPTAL
Calcium/calmodulin-dependent protein kinase type IV (Homo sapiens), sequence (Q16566 whole entry): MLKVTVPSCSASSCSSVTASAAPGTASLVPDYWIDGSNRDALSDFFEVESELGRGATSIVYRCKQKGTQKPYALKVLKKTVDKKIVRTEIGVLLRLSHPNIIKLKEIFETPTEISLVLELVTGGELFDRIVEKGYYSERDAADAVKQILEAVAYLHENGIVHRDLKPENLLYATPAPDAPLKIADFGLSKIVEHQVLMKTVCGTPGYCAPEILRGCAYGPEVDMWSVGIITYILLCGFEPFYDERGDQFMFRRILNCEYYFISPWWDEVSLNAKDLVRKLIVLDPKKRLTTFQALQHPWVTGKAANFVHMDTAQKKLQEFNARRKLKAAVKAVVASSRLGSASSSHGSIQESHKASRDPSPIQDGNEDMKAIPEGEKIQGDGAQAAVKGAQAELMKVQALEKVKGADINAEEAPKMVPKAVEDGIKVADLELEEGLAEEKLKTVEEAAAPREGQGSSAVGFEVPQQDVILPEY
Proto-oncogene tyrosine-protein kinase receptor Ret (Homo sapiens), sequence (P07949 whole entry): as the sequence (P07949 whole entry M918T) above, with T918M counted along it

Compound CCC(=O)N[C@H]1CC[C@@H](C(=O)N(C)c2ccc(-c3nc4ccccc4o3)cc2)C1 [BI 99179] has a residual activity [1] of 66%, a residual activity [2] of 61% and a residual activity [3] of 100%. The residual activity [4] was 100%, the inhibition [5] was -8.17% and the residual activity [6] was 100%. The residual activity [7] was 100%, the residual activity [8] was 99% and the residual activity [9] was 100%. For the same compound, the residual activity [10] was 100%, the residual activity [11] was 75% and the residual activity [12] was 78%. The residual activity [13] was 97%, the residual activity [14] was 100% and the residual activity [15] was 92%. The residual activity [16] was 98%, the residual activity [17] was 100% and the residual activity [18] was 87%. For the same compound, the residual activity [19] was 100%, the residual activity [20] was 100% and the residual activity [21] was 97%. The residual activity [22] was 100%, the residual activity [23] was 85% and the residual activity [24] was 85%. For the same compound, the residual activity [25] was 86%, the residual activity [26] was 100% and the residual activity [27] was 97%. It also gave a residual activity [28] of 100%, a residual activity [29] of 94% and an inhibition (Histamine H4 receptor) of 39.3%. For the same compound, the residual activity [30] was 95%, the residual activity [31] was 98% and the residual activity [32] was 85%. For the same compound, the residual activity [33] was 88%, the residual activity [34] was 90% and the residual activity [35] was 83%. The residual activity [36] was 88%, the inhibition [37] was 28.9% and the residual activity [38] was 80%. For the same compound, the residual activity [39] was 100%, the residual activity [40] was 99% and the residual activity [41] was 100%. For the same compound, the residual activity [42] was 99%, the residual activity [43] was 76% and the residual activity [44] was 100%.

Work on CCC(=O)N[C@@H]1CC[C@H](C(=O)N(C)c2ccc(-c3nc4ccccc4o3)cc2)C1 [BI 99990] yielded a residual activity [1] of 100%, a residual activity [2] of 100% and a residual activity [3] of 100%. For the same compound, the residual activity [4] was 100%, the inhibition [5] was 1.65% and the residual activity [6] was 100%. The residual activity [7] was 100%, the residual activity [8] was 86% and the residual activity [9] was 100%. For the same compound, the residual activity [10] was 98%, the residual activity [11] was 100% and the residual activity [12] was 97%. It also gave a residual activity [13] of 100%, a residual activity [14] of 92% and a residual activity [15] of 93%. The residual activity [16] was 100%, the residual activity [17] was 77% and the residual activity [18] was 91%. The residual activity [19] was 100%, the residual activity [20] was 100% and the residual activity [21] was 95%. For the same compound, the residual activity [22] was 100%, the residual activity [23] was 99% and the residual activity [24] was 100%. The residual activity [25] was 78%, the residual activity [26] was 100% and the residual activity [27] was 100%. It also gave a residual activity [28] of 100%, a residual activity [29] of 93% and an inhibition (Histamine H4 receptor) of 55.3%. The residual activity [30] was 100%, the residual activity [31] was 100% and the residual activity [32] was 100%. The residual activity [33] was 100%, the residual activity [34] was 100% and the residual activity [35] was 100%. It also gave a residual activity [36] of 100%, an inhibition [37] of 5.19% and a residual activity [38] of 95%. For the same compound, the residual activity [39] was 100%, the residual activity [40] was 100% and the residual activity [41] was 100%. The residual activity [42] was 100%, the residual activity [43] was 77% and the residual activity [44] was 100%.
